Assay results: patent US6821980B1, “Substituted 5-benzyl-2,4-diaminopyrimidines” (Basilea Pharmaceutica AG, priority 1999, dated 2004)
Converted amounts (≈) assume the structure as drawn. Where two headings read alike, the source gives them in different places.

Experiments:
[1] = biological target: T1, purified DHFR of strain Sp1/1 of Streptococcus pneumoniae (Streptococcus pneumoniae serotype 4, UniProt Q54801); type: biochemical; details: IC50 against purified DHFR of strain Sp1/1
T1 sequence (Q54801 1-168 I100L): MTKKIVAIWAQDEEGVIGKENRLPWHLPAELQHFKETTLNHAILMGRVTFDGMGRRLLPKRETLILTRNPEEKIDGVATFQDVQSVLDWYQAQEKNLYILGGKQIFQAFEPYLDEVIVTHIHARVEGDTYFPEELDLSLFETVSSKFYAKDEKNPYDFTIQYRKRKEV

[2] = system: Streptococcus pneumoniae 1/1; test: MIC against Streptococcus pneumoniae 1/1; type: cell-based
[3] = system: Staphylococcus aureus 101; test: MIC against Staphylococcus aureus 101; type: cell-based; details: Staphylococcus aureus 101, MRSA- and trimethoprim-resistant, clinical isolate; for MIC: Table 2, read-out: MIC Sa101
[4] = biological target: purified DHFR of strain 157/4696 of Staphylococcus aureus (Staphylococcus aureus, UniProt P13955); test: biochemical
Chain of purified DHFR of strain 157/4696 of Staphylococcus aureus (P13955 whole entry): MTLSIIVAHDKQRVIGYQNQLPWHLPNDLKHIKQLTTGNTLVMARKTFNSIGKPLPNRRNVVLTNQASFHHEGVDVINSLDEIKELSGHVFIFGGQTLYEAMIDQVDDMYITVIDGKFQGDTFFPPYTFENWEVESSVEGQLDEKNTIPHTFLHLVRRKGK

[5] = Table 2, Streptococcus pneumoniae 1/1, trimethoprim- and penicillin-resistant, serotype 6, clinical isolate, read-out: MIC Sp1/1

SMILES	IC50 ([1]; Table 2)	MIC [2, 5]	MIC [3]	IC50 [4]	IC50 ([1]; Table 1)	MIC Sp1/1 ([2]; Table 1, Streptococcus pneumoniae 1/1, trimethoprim- and penicillin-resistant, serotype 6, clinical isolate)	MIC Sa101 ([3]; Table 1)	IC50 ([4]; Table 1, IC50 against purified DHFR of strain 157/4696 (highly trimethoprim-resistant; clinical isolate), read-out: DHFR Sa1)	MIC ([2]; Streptococcus pneumoniae, 1/1, read-out: MIC Sp1/1)
CCOc1cc(Cc2cnc(N)nc2N)cc(OCCc2ccccn2)c1-c1cccc(N)c1 [Example 07-g, 5-[3′-Amino-6-ethoxy-2-(2-pyridin-2-yl-ethoxy)-biphenyl-4-ylmethyl]-pyrimidine-2,4-diamine]	30 nM	8 µg/mL (≈ 17.5 µM)	8 µg/mL (≈ 17.5 µM)	650 nM					
CCOc1cc(Cc2cnc(N)nc2N)cc(OCC(F)(F)F)c1-c1cccc(N)c1 [Example 07-i, 5-[3′-Amino-6-ethoxy-2-(2,2,2-trifluoro-ethoxy)-biphenyl-4-ylmethyl]-pyrimidine-2,4-diamine]	28 nM	4 µg/mL (≈ 9.23 µM)	4 µg/mL (≈ 9.23 µM)	900 nM					
CCOc1cc(Cc2cnc(N)nc2N)cc(OCCC2CCOCC2)c1-c1cccc(N)c1 [Example 07-j, 5-{3′-Amino-2-ethoxy-6-[2-(tetrahydro-pyran-4-yl)-ethoxy]-biphenyl-4-ylmethyl}-pyrimidine-2,4-diamine]	29 nM	1 µg/mL (≈ 2.16 µM)	8 µg/mL (≈ 17.3 µM)	1300 nM					
CCOc1cc(Cc2cnc(N)nc2N)cc(OCC2CC2)c1-c1cccc(N)c1 [Example 7a, 5-(3′-Amino-6-cyclopropylmethoxy-2-ethoxy-biphenyl-4-ylmethyl)-pirimidine-2,4-diamine]					2.1 nM	1 µg/mL (≈ 2.47 µM)	8 µg/mL (≈ 19.7 µM)	510 nM	
CCOc1cc(Cc2cnc(N)nc2N)cc(OCC(C)(C)COC)c1-c1ccc(O)cc1 [Example 08-a, 4′-(2,4-Diamino-pylimidin-5-ylmethyl)-6′-ethoxy-2′-(3-methoxy-2,2-dimethyl-propoxy)-biphenyl-4-ol]	18 nM	2 µg/mL (≈ 4.42 µM)	8 µg/mL (≈ 17.7 µM)	1700 nM					
CCOc1cc(Cc2cnc(N)nc2N)cc(OCC(C)(C)/C=C/C#N)c1-c1ccc(O)cc1 [Example 08-b, (E)-5-[4-(2,4-Diamino-pyrimidin-5-ylmethyl)-6-ethoxy-4′-hydroxy-biphenyl-2-yloxy]-4,4-dimethyl-pent-2-ene-nitrile]	38 nM		8 µg/mL (≈ 17.4 µM)	950 nM					2 µg/mL (≈ 4.35 µM)
CCOc1cc(Cc2cnc(N)nc2N)cc(OCC2(CC#N)CC2)c1-c1ccc(O)cc1 [Example 08-c, {1-[4-(2,4-Diamino-pyrimidin-5-ylmethyl)-6-ethoxy-4′-hydroxy-biphenyl-2-yloxymethyl]-cyclopropyl}-acetonitrile]	24 nM	4 µg/mL (≈ 8.98 µM)	8 µg/mL (≈ 18 µM)	1600 nM					
CCOc1cc(Cc2cnc(N)nc2N)cc(OCC2(/C=C/C#N)CC2)c1-c1ccc(O)cc1 [Example 08-d, (E)-3-[1-[4-(2,4-Diamino-pyrimidin-5-ylmethyl)-6-ethoxy-4′-hydrozy-biphenyl-2-yloxymethyl]-cyopropyl]-acrylonitrile]	16 nM	4 µg/mL (≈ 8.74 µM)	8 µg/mL (≈ 17.5 µM)	620 nM					
CCOc1cc(Cc2cnc(N)nc2N)cc(OCCC2CCOCC2)c1-c1ccc(O)cc1 [Example 08-e, 4′-(2,4-Diamino-pyrimidin-5-ylmethyl)-6′-ethoxy-2′-[2-(tetrahydrogyran-4-yl)-ethoxy]-biphenyl-4-ol]	5.6 nM	1 µg/mL (≈ 2.15 µM)	8 µg/mL (≈ 17.2 µM)	950 nM					
CCOc1cc(Cc2cnc(N)nc2N)cc(OCC2(C#N)CC2)c1-c1ccc(O)cc1 [Example 08-f, 1-[4-(2,4-Diamino-pyrimidin-5-ylmethyl)-6-ethoxy-4′-hydroxy-biphenyl-2-yloxymethyl]-cyclopropanecarbonitrile]	49 nM	4 µg/mL (≈ 9.27 µM)	8 µg/mL (≈ 18.5 µM)	950 nM					
CCOc1cc(Cc2cnc(N)nc2N)cc(OCCc2ccccn2)c1-c1ccc(O)cc1 [Example 08-g, 4′-(2,4-Diamino-pyrimidin-5-ylmethyl)-6′-ethoxy-2′-(2-pyridin-2-yl-ethoxy)-biphenyl-4-ol]	52 nM	4 µg/mL (≈ 8.74 µM)	8 µg/mL (≈ 17.5 µM)	1300 nM					
CCOc1cc(Cc2cnc(N)nc2N)cc(OCC2CC2)c1-c1ccc(O)cc1 [Example 08-h, 2′-Cyclopropylmethoxy-4′-(2,4-diamino-pyrimidin-5-ylmethyl)-6′-ethoxy-biphenyl-4-ol]	11 nM	2 µg/mL (≈ 4.92 µM)	4 µg/mL (≈ 9.84 µM)	1200 nM					
CCOc1cc(Cc2cnc(N)nc2N)cc(OCC2CCC2)c1-c1ccc(O)cc1 [Example 08-i, 2′-Cyclobutylmethoxy-4′-(2,4-diamino-pyrimidin-5-ylmethyl)-6′-ethoxy-biphenyl-4-ol]	40 nM	4 µg/mL (≈ 9.51 µM)	2 µg/mL (≈ 4.76 µM)	1000 nM					
CCOc1cc(Cc2cnc(N)nc2N)cc(OC2CCCC2)c1-c1ccc(O)cc1 [Example 08-j, 2′-Cyclopentylox-4′-(2,4-diamino-pyrimidin-5-ylmethyl)-6′-ethoxy-biphenyl-4-ol]	26 nM	2 µg/mL (≈ 4.76 µM)	2 µg/mL (≈ 4.76 µM)	1600 nM					
CCOc1cc(Cc2cnc(N)nc2N)cc(OC2CCC2)c1-c1ccc(O)cc1 [Example 08-k, 2′-Cyclobutoxy-4′-(2,4-diamino-pyrimidin-5-ylmethyl)-6′-ethoxy-biphenyl-4-ol]	43 nM	2 µg/mL (≈ 4.92 µM)	4 µg/mL (≈ 9.84 µM)	2100 nM					
CCOc1cc(Cc2cnc(N)nc2N)cc(OCCC2CC2)c1-c1ccc(O)cc1 [Example 08-l, 2′-(2-Cydopropyl-ethoxy)-4′-(2,4-diamino-pyrimidin-5-ylmethyl)-6′-ethoxy-biphenyl-4-ol]	58 nM	8 µg/mL (≈ 19 µM)	4 µg/mL (≈ 9.51 µM)	2200 nM					
CCOc1cc(Cc2cnc(N)nc2N)cc(OC(C)C)c1-c1ccc(O)cc1 [Example 08-m, 4′-(2,4-diamino-pyrimidin-5-ylmethyl)-6′-ethoxy-2′-isopropoxy-biphenyl-4-ol]	65 nM	4 µg/mL (≈ 10.1 µM)	8 µg/mL (≈ 20.3 µM)	860 nM					
CCOc1cc(Cc2cnc(N)nc2N)cc(OCC(C)C)c1-c1ccc(O)cc1 [Example 08-n, 4′-(2,4-Diamino-pyrimidin-5-ylmethyl)-6′-ethoxy-2′-isobutoxy-biphenyl-4-ol]	15 nM	2 µg/mL (≈ 4.9 µM)	4 µg/mL (≈ 9.79 µM)	1200 nM					
CCOc1cc(Cc2cnc(N)nc2N)cc(OCC2(C)CC2)c1-c1ccc(O)cc1 [Example 08-o, 4′-(2,4-Diamino-pyrimidin-5-ylmethyl)-6′-ethoxy-2′-[(1-methyl-cyclopropyl)-methoxy]-biphenyl-4-ol]	51 nM	2 µg/mL (≈ 4.76 µM)	4 µg/mL (≈ 9.51 µM)	1400 nM					
CCOc1cc(Cc2cnc(N)nc2N)cc(OCC(C)(C)CO)c1-c1ccc(O)cc1 [Example 08-p]	20 nM	4 µg/mL (≈ 9.12 µM)	8 µg/mL (≈ 18.2 µM)	800 nM					
CCOc1cc(Cc2cnc(N)nc2N)cc(OCCc2scnc2C)c1-c1ccc(O)cc1 [Example 08-q, 4′-(2,4-Diamino-pyrimidin-5-ylmethyl)-6′-ethoxy-2′-[2-(4-methyl-thiazol-5-yl)-ethoxy]-biphenyl-4-ol]	28 nM	8 µg/mL (≈ 16.8 µM)	8 µg/mL (≈ 16.8 µM)	1400 nM					
CCOc1cc(Cc2cnc(N)nc2N)cc(OC2CCC(OC)C2)c1-c1ccc(O)cc1 (stereo not drawn) [Example 08-r, 5-[6-Ethoxy-2-(3-methoxy-cyclopentyloxy)-4′-hydroxy-biphenyl-4-ylmethyl]-pyrimidine-2,4-diamine]	37 nM	8 µg/mL (≈ 17.8 µM)	8 µg/mL (≈ 17.8 µM)	1200 nM					
CCOc1cc(Cc2cnc(N)nc2N)cc(OCC(F)(F)F)c1-c1ccc(O)cc1 [Example 08-s]	31 nM	2 µg/mL (≈ 4.6 µM)	4 µg/mL (≈ 9.21 µM)	3700 nM					
CCOc1cc(Cc2cnc(N)nc2N)cc(OC2CCC(CC#N)C2)c1-c1ccc(O)cc1 (stereo not drawn) [Example 08-w, {3-[4-(2,4-Diamino-pyhmidin-5-ylmethyl)-6-ethoxy-4′-hydroxy-biphenyl-2-yloxy]-cyclopentyl}-acetonitrile]	21 nM	4 µg/mL (≈ 8.7 µM)	8 µg/mL (≈ 17.4 µM)	920 nM					
CCOc1cc(Cc2cnc(N)nc2N)cc(OC2CCC(C#N)C2)c1-c1ccc(O)cc1 (stereo not drawn) [Example 08-x, 3-[4-(2,4-Diamino-pyximidin-5-ylmethyl)-6-ethoxy-4′-hydroxy-biphenyl-2-yloxy]-cyclopentanecarbonitrile]	25 nM	4 µg/mL (≈ 8.98 µM)	8 µg/mL (≈ 18 µM)	1400 nM					
CCOc1cc(Cc2cnc(N)nc2N)cc(OCC(C)(C)COC)c1-c1ccc(OC)cc1 [Example 09-a, 5-[6-Ethoxy-4′-methoxy-2-(3-methoxy-2,2-dimethyl-propoxy)-biphenyl-4-ylmethyl]-pyrimidine-2,4-diamine]	90 nM	4 µg/mL (≈ 8.57 µM)	8 µg/mL (≈ 17.1 µM)	3100 nM					
CCOc1cc(Cc2cnc(N)nc2N)cc(OCC2(CCC#N)CC2)c1-c1ccc(OC)cc1 [Example 09-c, 3-{1-[4-(2,4-Diamino-pyrimidin-5-ylmethyl)-6-ethoxy-4′-methoxy-biphenyl-2-yloxymethyl]-cyclopropyl}-propionitrile]	16 nM	1 µg/mL (≈ 2.11 µM)	4 µg/mL (≈ 8.45 µM)	900 nM					
